What was measured:
ER-α = molecular target: T1, ER-α (Homo sapiens, UniProt P03372); experiment: Breast Cancer Cell ER-α in Cell Western Assay (SP1); type: cell-based; settings: MCF7, read-out: ER In-Cell Western Assay (SP1); Max Response
T1 construct: endogenous in cells; host or cells: MCF-7
Description: Breast Cancer Cell ER-α in Cell Western Assay (SP1)
MCF-7 cells were adjusted to a concentration of 200,000 cells per mL in RPMI containing 10% charcoal-stripped FBS and 20 mM HEPES. 16 microliters of the cell suspension (3200 cells) was added to each well of a poly-D-lysine 384 well plate, and the cells were incubated overnight to allow the cells to adhere. The following day an eleven point, serial semilog dilution of each compound was added to the cells in 16 μL at a final concentration ranging from 0.3-0.000003 μM. At 4 or 24 hr post compound addition, the cells were fixed (10% formalin in PBS) for 20 minutes. Cells were permeablized in PBS 0.1% Triton and blocked with LICOR blocking buffer (50 μl/well, 90′). The wells were then incubated overnight at 4° C. with SP1 rabbit monoclonal Ab (Thermo Scientific) diluted 1:1000 in LICOR blocking buffer/0.1% Tween-20. Wells which were treated with blocking buffer with Tween but no antibody were used as a background control. Wells were washed with 0.1% Tween-20/PBS and then incubated in goat anti-rabbit IRDye™ 800CW (LICOR Inc.; 1:1000) and DRAQ5 DNA dye (1:2000 for 2 mM stock) diluted in LICOR blocking buffer containing 0.1% Tween-20 and 0.01% SDS for 60 minutes. Cells were washed (50 μl/well, 5′ each) in 0.1% Tween-20/PBS. Plates were scanned on a LICOR Odyssey infrared imaging system. Integrated intensities in the 800 nm channel and 700 nm channel were measured to determine levels of ER and DNA respectively. Percent ER levels were determined as follows: (Integrated intensity 800 nm sample/integrated intensity 700 nm sample)/(Integrated intensity 800 nm untreated cells/integrated intensity 700 nm untreated cells)×100=% ER levels.

MCF-7 cells = experiment: Breast Cancer Cell Viability Assay (MCF7 Viability Assay); type: cell-based; settings: for IC50: Homo sapiens, MCF7, 120 h, read-out: MCF7 Viability Assay IC50; for MCF7 Viability Assay Max Response: MCF-7 cells, 5 days' compound exposure, CellTiter-Glo

T1 sequence (P03372 whole entry): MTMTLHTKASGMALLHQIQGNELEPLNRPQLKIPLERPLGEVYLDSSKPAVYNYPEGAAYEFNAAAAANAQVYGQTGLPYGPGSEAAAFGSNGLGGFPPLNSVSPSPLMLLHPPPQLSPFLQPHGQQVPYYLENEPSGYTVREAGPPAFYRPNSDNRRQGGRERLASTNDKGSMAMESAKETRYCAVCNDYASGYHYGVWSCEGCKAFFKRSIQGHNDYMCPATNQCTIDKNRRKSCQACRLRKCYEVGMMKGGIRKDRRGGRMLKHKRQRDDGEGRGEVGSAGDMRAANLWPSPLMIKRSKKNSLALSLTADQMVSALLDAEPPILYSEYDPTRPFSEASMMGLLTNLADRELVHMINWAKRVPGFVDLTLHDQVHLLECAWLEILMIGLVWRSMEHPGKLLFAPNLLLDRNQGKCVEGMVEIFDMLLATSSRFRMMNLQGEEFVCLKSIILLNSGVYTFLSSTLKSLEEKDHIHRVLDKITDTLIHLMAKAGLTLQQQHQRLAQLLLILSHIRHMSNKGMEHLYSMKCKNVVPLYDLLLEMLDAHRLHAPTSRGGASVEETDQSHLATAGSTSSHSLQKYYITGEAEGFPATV

SMILES | Emax (ER-α) | IC50 (MCF-7 cells) | MCF7 Viability Assay Max Response (MCF-7 cells)
CC1=C(c2cccc(O)c2)C(c2ccc(OCCN3CCOC[C@@H]3C)cc2)Oc2ccc(O)cc21 (stereo partly drawn) [Example 23, 3-(3-Hydroxyphenyl)-4-methyl-2-(4-(2-((S)-3-methylmorpholino)ethoxy)phenyl)-2H-chromen-6-ol] | < 60% | > 1 nM | + (+ = a single % value <50%)
CC1=C(c2cccc(O)c2)C(c2ccc(OCCN3CCOC[C@H]3C)cc2)Oc2ccc(O)cc21 (stereo partly drawn) [Example 24, 3-(3-Hydroxyphenyl)-4-methyl-2-(4-(2-((R)-3-methylmorpholino)ethoxy)phenyl)-2H-chromen-6-ol] | < 60% | < 1 nM | + (+ = a single % value <50%)
CO[C@@H]1CCN([C@@H](C)COc2ccc(C3Oc4ccc(O)cc4C(C)=C3c3cccc(O)c3)cc2)C1 (stereo partly drawn) [Example 25, 3-(3-Hydroxyphenyl)-2-(4-((S)-2-((R)-3-methoxypyrrolidin-1-yl)propoxy)phenyl)-4-methyl-2H-chromen-6-ol] | 60 to 85% | < 1 nM | ++ (++ = a single % value ≧50%)
CC1=C(c2cccc(O)c2)C(c2ccc(OC[C@H](C)N3CC[C@@H](O)C3)cc2)Oc2ccc(O)cc21 (stereo partly drawn) [Example 26, (3R)-1-((2S)-1-(4-(6-Hydroxy-3-(3-hydroxyphenyl)-4-methyl-2H-chromen-2-yl)phenoxy)propan-2-yl)pyrrolidin-3-ol] | < 60% | < 1 nM | + (+ = a single % value <50%)
CC1=C(c2cccc(O)c2)C(c2ccc(OC[C@H](C)N3CCOC[C@H]3C)cc2)Oc2ccc(O)cc21 (stereo partly drawn) [Example 27, 3-(3-Hydroxyphenyl)-4-methyl-2-(4-((S)-2-((R)-3-methylmorpholino)propoxy)phenyl)-2H-chromen-6-ol] | < 60% | < 1 nM | ++ (++ = a single % value ≧50%)
CC1=C(c2cccc(O)c2)C(c2ccc(OC[C@H](C)N3CCN(C)C[C@H]3C)cc2)Oc2ccc(O)cc21 (stereo partly drawn) [Example 28, 2-(4-((S)-2-((R)-2,4-Dimethylpiperazin-1-yl)propoxy)phenyl)-3-(3-hydroxyphenyl)-4-methyl-2H-chromen-6-ol] | < 60% | < 1 nM | + (+ = a single % value <50%)
CC1=C(c2cccc(O)c2)C(c2ccc(OC[C@H](C)N3CCOCC3)cc2)Oc2ccc(O)cc21 (stereo partly drawn) [Example 29, 3-(3-Hydroxyphenyl)-4-methyl-2-(4-((S)-2-morpholinopropoxy)phenyl)-2H-chromen-6-ol] | 60 to 85% | < 1 nM | + (+ = a single % value <50%)
COc1ccc2c(c1)C(C)=C(c1ccc(O)cc1)C(c1ccc(OC[C@H](C)N3CC[C@@H](C)C3)cc1)O2 (stereo partly drawn) [Example 30, 4-(6-Methoxy-4-methyl-2-(4-((S)-2-((R)-3-methylpyrrolidin-1-yl)propoxy)phenyl)-2H-chromen-3-yl)phenol] | 60 to 85% | > 1 nM | ++ (++ = a single % value ≧50%)
COc1cccc(C2=C(C)c3cc(O)ccc3OC2c2ccc(OC[C@H](C)N3CC[C@@H](C)C3)cc2)c1 (stereo partly drawn) [Example 31, 3-(3-Methoxyphenyl)-4-methyl-2-(4-((S)-2-((R)-3-methylpyrrolidin-1-yl)propoxy)phenyl)-2H-chromen-6-ol] | 60 to 85% | > 1 nM | ++ (++ = a single % value ≧50%)
